From patent US20040235920A1, “Novel use of substituted aminomethyl chromans for the treatment of movement disorders and of adverse effects induced by drugs administered to treat extrapyramidal movement disorders” (priority 2001, published 2004)

Tests used:
[1] = test system: cataleptic rat; experiment: Reversal of catalepsy in rats (oral ED50); type: in vivo; details: rats; for ED50: Rattus norvegicus, read-out: oral ED50 value (calculated dose to reverse catalepsy by 50%); for oral ED50 value (calculated dose to reverse catalepsy by 50%) / ED50: oral
Protocol: Extrapyramidal motor side effects in e.g. rodents are measured by the ability of a drug to induce catalepsy. Catalepsy is defined as a state where an animal continues to remain in an unnormal (nonphysiological ‘uncomfortable’) posture for a long time (e.g.: M. E. Stanley and S. D. Glick, Neuropharmacology, 1996; 15: 393-394; C. J. E. Niemegeers and P. Janssen, Life Sci., 1979, […]). For example, if a hindpaw of a rat is placed on an elevated level, e.g. a platform elevated 3 cm above ground level, a normal rat immediately withdraws the hindpaw from the platform to the ground level. A cataleptic rat remains in this unnatural posture even for minutes.

[2] = test system: advanced Parkinson patients; details: cited from earlier work
[3] = test system: schizophrenic inpatients on long-term antipsychotic treatment; experiment: Cross-over add-on study in tardive dyskinesia (AIMS); type: in vivo, human; details: up to 20 mg t.i.d., vs placebo period, typical study
Text: Tardive dyskinesia is a common adverse effect of long-term treatment with neuroleptics. A typical study to investigate the efficacy of the compounds according to the invention in tardive dyskinesia is described in the following. 32 schizophrenic (DSM-III-R) inpatients aged 25-60 years on long-term stable antipsychotic treatment (duration of at least 5 years) entered the study. (−)-(R)-2-{4-[[3,4-dihydro-2H-benzopyran-2-yl)-methyl]amino]butyl}-1,2-benzoisothiazol-3-(2H)-on-1,1-dioxide monohydrochloride or placebo is administered as “add on” to the antipsychotic treatment, which is kept constant during the whole study. The dose of blinded medication is titrated over a period of 3 weeks in a range from I to 20 mg t.i.d. Then the medication is maintained under double-blind conditions for 2 weeks. After a 2-week wash-out period, the test drugs are crossed over. Assessments of tardive dyskinesia by means of the Abnormal Involuntary Movement Scale (AIMS, see above) and of Parkinsonian extrapyramidal side effects (UPDRS, see above) are made pretreatment and posttreatment.

[4] = test system: patients with cervical dystonia (spasmodic torticollis); experiment: Double-blind placebo-controlled study in cervical dystonia (TWSTRS); type: in vivo, human; details: 2.5 mg to 20 mg b.i.d.
[5] = test system: MSA patients; experiment: Add-on study in MSA patients (UPDRS); type: in vivo, human; details: 1 to 20 mg t.i.d., typical study
Protocol: The study design is similar to that described above for Parkinson's disease. (−)-(R)-2-{4-[[3,4-dihydro-2H-benzopyran-2-yl)-methyl]amino]butyl}-1,2-benzoisothiazol-3-(2H)-on-1,1-dioxide monohydrochloride or placebo is titrated as “add on” to the conventional treatment (dose range 1 to 20 mg t.i.d.). After a double-bllind dose-finding phase of 3 weeks during which the individual dose is identified for each patient on the basis of tolerability and efficacy, the dose is maintained unchanged for 3 additional weeks. Before the start of titration and at the end of the treatment period a complete UPDRS assessment is performed in each patient (primary outcome measure).

[6] = test system: patients with advanced idiopathic Parkinson's disease complicated by “peak-dose” dyskinesia; experiment: Double-blind add-on study in advanced idiopathic Parkinson's disease with peak-dose dyskinesia (diary card); type: in vivo, human; details: 2.5 to 10 mg b.i.d., typical study
Text: A typical study to investigate the efficacy of the compounds according to the invention for adverse effects in Parkinson's disease is described in the following. 40 patients of either sex with advanced idiopathic Parkinson's disease complicated by “peak-dose” dyskinesia participate in a double-blind study. The main inclusion criteria are Hoehn & Yahr stage≧2.5 (lit.: Hoehn H. M. et al, Neurology 1967; 17: 427-442), aged 40-75 years, symptom duration of at least 5 years, and a l-dopa treatment duration of at least 3 years. (−)-(R)-2-{4-[[3,4-dihydro-2H-benzopyran-2-yl)-methyl]amino]butyl}-1,2-benzoisothiazol-3-(2H)-on-1,1-dioxide monohydrochloride or placebo is administered as “add on” to the conventional Parkinson treatment, which is maintained unchanged during the whole study. The dose of blinded medication is titrated over a period of 3 weeks in a range from 2.5 to 10 mg b.i.d. Then the medication is kept constant for 3 weeks. Before the start of titration and at the end of the treatment period the patients fill a diary card in 30 min. inervalls for 48 hours. The diary card differentiates 5 different states: (1) “on” without dyskinesia, (2) “on” with troublesome dyskinesia, (3) “on” with non-troublesome dyskinesia, (4) “off” time, and (5) time asleep (Hauser RA et al., Clin. Neuropharmacol., 2000, 23, 75-81). The primary outcome variable of the protocol is the change in “on” time with troublesome dyskinesia. […] The other parameters are not changed.

O=C1[C@@H]2[C@H]3CC[C@H](C3)[C@@H]2C(=O)N1CCCCN1CCN(c2ncccn2)CC1 [tandosirone]
oral ED50 value (calculated dose to reverse catalepsy by 50%) [1]: 60 mg/kg

O=C1CC2(CCCC2)CC(=O)N1CCCCN1CCN(c2ncccn2)CC1 [buspirone]
ED50 [1]: 30 mg/kg | anti-dyskinetic properties [2]: moderate anti-dyskinetic properties

Cl.O=C1c2ccccc2S(=O)(=O)N1CCCCNC[C@H]1CCc2ccccc2O1 [(−)-(R)-2-{4-[[3,4-dihydro-2H-benzopyran-2-yl)-methyl]amino]butyl}-1,2-benzoisothiazol-3-(2H)-on-1,1-dioxide monohydrochloride]
AIMS scores [3]: significantly lower than during placebo period | TWSTRS scores [4]: significant improvement | UPDRS (Parkinson symptoms) [5]: significant clinical improvement of Parkinson symptoms | oral ED50 value (calculated dose to reverse catalepsy by 50%) [1]: 0,6 mg/kg | potency in reversing catalepsy compared to other 5-HT1A agonists ([1]; oral ED50 vs ipsapirone, buspirone, gepirone, tandosirone): 30-100 times | other diary parameters [6]: not changed | “on” time with troublesome dyskinesia [6]: significant reduction | “on” time without dyskinesia [6]: significantly increase

O=C1c2ccccc2S(=O)(=O)N1CCCCN1CCN(c2ncccn2)CC1 [ipsapirone]
ED50 [1]: 23 mg/kg

CC1(C)CC(=O)N(CCCCN2CCN(c3ncccn3)CC2)C(=O)C1 [gepirone]
ED50 [1]: 16 mg/kg
